SMILES strings stand for the structures.

The source of these data is US20260325661A1, “ANTIBODY-CONJUGATED IMMUNO-ACTIVATING SMALL MOLECULE COMPOUND, AND USE” (SHENZHEN CONJUGENIX PHARMACEUTICAL TECHNOLOGY CO., LTD, priority 2023, published 2026).

The first test relates to human peripheral blood mononuclear cells (PBMCs). As to the kind of experiment: ELISA assay of immunocyte activator: induction of IFN-γ in human PBMCs. Particulars: 24 h, 37 °C, Note a: sample pretreated with human liver microsomal enzyme, 2 h, read-out: EC50 IFN-γ ratio (inducing human PBMCs to produce IFN-γ). The format is cell-based. The method, then:
The immune activity of each compound is represented by the function of inducing human peripheral blood mononuclear cells (PBMCs) to produce the immune cytokine IFN-γ by, and the EC50 values thereof are shown in Table 3.
• 1) Peripheral blood samples from healthy human volunteer were collected into heparin anticoagulant tubes to reach 5 mL of fresh blood, and PBS was added at a ratio of 1:1 to dilute the blood (2 mL+2 mL in conventional blood collection tubes). • 2) 5 mL of lymphocyte separation medium was put in a 15 mL sterile centrifuge tube for use. • 3) The diluted blood was aspirated and slowly added from 1 cm above the separation medium along the tube wall, so that the diluted blood overlaid the separation medium and formed a distinct interface therewith. • 4) The centrifuge tube was centrifuged at 2000 rpm at room temperature for 20 min. Now five layers formed in the centrifuge tube: the top layer was plasma layer, and the layer between the plasma layer and the lymphocyte separation medium was the lymphocyte layer as a white film. • 5) The mononuclear cell layer as a white film in the middle was aspirated carefully and mononuclear cells were aspirated as many as possible. The mononuclear cells were washed by more than 5 volumes of PBS twice, and each time, the mononuclear cells were centrifuged at 1500 rpm for 10 min. • 6) The supernatant was removed, then 1 mL of 1640 medium was added and mixed uniformly. A small amount of the mixture was taken for cell counting.
The prepared PBMCs were plated in a 96-well plate (Costar, 3894) (2×10^5 cells per well). Each compound in Table 3 was taken and added into the wells with plated cells at ten concentrations with uniform gradient distribution (0.0001-10 μM, diluted with […] medium containing […]).
In general terms: In an ELISA, binding on a coated surface is turned into a signal by an enzyme label.
In the case of `C=C(CC)C(=O)c1ccc(OCC(=O)NCc2ccc(Cn3c(=O)n(COC(=O)OCc4ccc(NC(=O)[C@H](C)NC(=O)[C@@H](NC(=O)CCOCCOCCOCCOCCNC(=O)CCC(=O)N5Cc6ccccc6C#Cc6ccccc65)C(C)C)cc4)c4c(N)nc(OCCOC)nc43)cc2)c(Cl)c1Cl` [Compound K60], the EC50 was 90 nM.

Take `CCCCOc1nc(N)c2c(n1)n(CC1CCN(C(=O)/C=C/C(=O)c3ccc(OC)cc3)CC1)c(=O)n2C(=O)NCCNC(=O)OCc1ccc(NC(=O)[C@H](CCCNC(N)=O)NC(=O)[C@@H](NC(=O)CCOCCOCCOCCOCCNC(=O)CCC(=O)N2Cc3ccccc3C#Cc3ccccc32)C(C)C)cc1` [Compound K58]: the EC50 is 9 nM.

In the case of `C=C(CN1CCC(Cn2c(=O)n(C(=O)NCCNC(=O)OCc3ccc(NC(=O)[C@H](CCCNC(N)=O)NC(=O)[C@@H](NC(=O)CCOCCOCCOCCOCCNC(=O)CCC(=O)N4Cc5ccccc5C#Cc5ccccc54)C(C)C)cc3)c3c(N)nc(OCCCC)nc32)CC1)C(=O)OCC` [Compound K52], the EC50 was 120 nM.

The test is the same for the next values; noted with them: Homo sapiens, PBMC, 24 h, 37 °C, Note a: sample pretreated with human liver microsomal enzyme, 2 h, read-out: EC50 IFN-γ ratio (inducing human PBMCs to produce IFN-γ).
For the compound `COCCOc1nc(N)c2c(n1)n(Cc1ccc(CNC(=O)CCc3cn(CCOCCOCCOCCNC(=O)OCc4ccc(NC(=O)[C@H](CCCNC(N)=O)NC(=O)[C@@H](NC(=O)CCCCCN5C(=O)C=CC5=O)C(C)C)cc4)nn3)cc1)c(=O)n2C(=O)N1CCN(C)CC1` [Compound K10], the EC50 turned out to be 210 nM.

`CCCCOc1nc(N)c2c(n1)n(Cc1cn(CCOCCOCCOCCNC(=O)OCc3ccc(NC(=O)[C@H](CCCNC(N)=O)NC(=O)[C@@H](NC(=O)CCCCC(=O)O)C(C)C)cc3)nn1)c(=O)n2C1CCCO1` (stereo partly drawn) [Compound K9]: the EC50 was found to be 9000 nM.

Still in this test, the particulars now being: Homo sapiens, PBMC, 24 h, 37 °C, Note c: sample pretreated with Cathepsin-B (10 μg) in PBS, room temperature, 3 h, read-out: EC50 IFN-γ ratio (inducing human PBMCs to produce IFN-γ).
Take `CCCCOc1nc(N)c2c(n1)N(Cc1cn(CCNC(=O)OCc3ccc(NC(=O)[C@H](CCCNC(N)=O)NC(=O)[C@@H](NC(=O)CCOCCOCCOCCOCCN(CCOCCOCCOCCOCCC(=O)N[C@H](C(=O)N[C@@H](CCCNC(N)=O)C(=O)Nc4ccc(COC(=O)NCCn5cc(Cn6c(=O)[nH]c7c(N)nc(OCCCC)nc76)nn5)cc4)C(C)C)C(=O)CCN4C(=O)C=CC4=O)C(C)C)cc3)nn1)C(=O)C2` [Compound K22]: the EC50 is 80 nM.

As to `C=CC(=O)Nc1cc(Nc2nccc(-c3cn(C)c4ccccc34)n2)c(OC)cc1N(C)CCN(C)CCOCCOCCOCCn1cc(Cn2c(=O)n(C(=O)NCCNC(=O)OCc3ccc(NC(=O)[C@H](CCCNC(N)=O)NC(=O)[C@@H](NC(=O)CCOCCOCCOCCOCCNC(=O)CCC(=O)N4Cc5ccccc5C#Cc5ccccc54)C(C)C)cc3)c3c(N)nc(OCCCC)nc32)nn1` [Compound K38], the EC50 was determined as 90 nM.

As to `C=C(CC(=O)OC)C(=O)NCc1ccc(Cn2c(=O)n(C(=O)NCCNC(=O)OCc3ccc(NC(=O)[C@H](CCCNC(N)=O)NC(=O)[C@@H](NC(=O)CCOCCOCCOCCOCCNC(=O)CCC(=O)N4Cc5ccccc5C#Cc5ccccc54)C(C)C)cc3)c3c(N)nc(OCCOC)nc32)cc1` [Compound K39], the EC50 was found to be 1 nM.

Staying with this test, now noted: Homo sapiens, PBMC, 24 h, 37 °C, no pretreatment marked, read-out: EC50 IFN-γ ratio (inducing human PBMCs to produce IFN-γ).
As for `CCCCOc1nc(N)c2[nH]c(=O)n(Cc3cn(CCN)nn3)c2n1` [KJ-032], the EC50 worked out at 110 nM.

In the case of `CCCCOc1nc(N)c2[nH]c(=O)n(Cc3ccc(NC(=S)Nc4sc5c(c4C(=O)N[C@@H](CCCCNC(=O)OCc4ccc(NC(=O)[C@H](CCCNC(N)=O)NC(=O)[C@@H](NC(=O)CCCCCN6C(=O)C=CC6=O)C(C)C)cc4)C(=O)NCCOCCOCCOCCOCCNC(=O)CCC(=O)N4Cc6ccccc6C#Cc6ccccc64)CCCC5)cc3)c2n1` [Compound K34], the EC50 is 131 nM.

With `C=C(CN1CCC(Cn2c(=O)[nH]c3c(N)nc(O[C@@H](C)CCC)nc32)CC1)C(=O)NCCOCCOCCOCCOCCNC(=O)CCC(=O)N1Cc2ccccc2C#Cc2ccccc21` [Compound K49], the EC50 came to 11 nM.

With `CCCCOc1nc(N)c2[nH]c(=O)n(Cc3ccc(NC(=S)Nc4sc5c(c4C(=O)OCC)CCCC5)cc3)c2n1` [KJ005], the EC50 was 370 nM.

With `CCCCOc1nc(N)c2[nH]c(=O)n(CC3CCN(C(=O)/C=C/C(=O)c4ccc(OC)cc4)CC3)c2n1` [KJ-104], the EC50 turned out to be 9 nM.

In the case of `CCCCOc1nc(N)c2[nH]c(=O)n(Cc3ccc(NC(=S)Nc4sc5c(c4C(=O)NC(CCCCN=C=S)C(=O)NCCOCCOCCOCCOCCNC(=O)CCC(=O)N4Cc6ccccc6C#Cc6ccccc64)CCCC5)cc3)c2n1` (stereo not drawn) [Compound K47], the EC50 amounted to 150 nM.

Turning to `CC[C@H](C)[C@@H]([C@@H](CC(=O)N1CCCC1[C@H](OC)[C@@H](C)C(=O)N[C@H](C)[C@@H](O)c1ccccc1)OC)N(C)C(=O)[C@@H](NC(=O)[C@H](C(C)C)N(C)C(=O)OCc1ccc(NC(=O)[C@H](CCCNC(N)=O)NC(=O)[C@@H](NC(=O)C(CCCCc2cn(CCOCCOCCOCCC(=O)O)nn2)NC(=O)CCC(=O)NCc2ccc(Cn3c(=O)[nH]c4c(N)nc(OCCOC)nc43)cc2)C(C)C)cc1)C(C)C` (stereo partly drawn) [Compound K5], the EC50 amounted to 130 nM.

In the case of `COCCOc1nc(N)c2[nH]c(=O)n(Cc3ccc(CNC(=O)CCC(=O)NC(CCCCNC(=O)OCc4ccc(NC(=O)[C@H](CCCNC(N)=O)NC(=O)[C@@H](NC(=O)CCCCCN5C(=O)C=CC5=O)C(C)C)cc4)C(=O)NCCOCCOCCOCCOc4ccc(-c5nnc(C)nn5)cc4)cc3)c2n1` (stereo partly drawn) [Compound K29], the EC50 worked out at 31 nM.

Turning to `CCC[C@H](C)Oc1nc(N)c2[nH]c(=O)n(CC3CC[N+]([O-])(CCO)CC3)c2n1` (stereo partly drawn) [KJ-3b-O], the EC50 amounted to 90 nM.

Consider `C=CC(=O)Nc1cc(Nc2nccc(-c3cn(C)c4ccccc34)n2)c(OC)cc1N(C)CCN(C)CCCCCCNC(=O)C(CCCCc1cn(CCOCCOCCOCCNC(=O)CCC(=O)N2Cc3ccccc3C#Cc3ccccc32)nn1)NC(=O)CCC(=O)NCc1ccc(Cn2c(=O)[nH]c3c(N)nc(OCCOC)nc32)cc1` (stereo not drawn) [Compound K35], for which the EC50 is 260 nM.

Consider `C#Cc1c(F)ccc2cc(O)cc(-c3ncc4c(N5CC6CCC(C5)N6C(=O)OCc5ccc(NC(=O)[C@H](CCCNC(N)=O)NC(=O)[C@@H](NC(=O)C(CCCCc6cn(CCOCCOCCOCCNC(=O)CCN7C(=O)C=CC7=O)nn6)NC(=O)CCC(=O)NCc6ccc(Cn7c(=O)[nH]c8c(N)nc(OCCOC)nc87)cc6)C(C)C)cc5)nc(OC[C@@]56CCCN5C[C@H](F)C6)nc4c3F)c12` (stereo partly drawn) [Compound K32], for which the EC50 came out at 160 nM.

For the compound `CCCCOc1nc(N)c2[nH]c(=O)n(Cc3cn(CCOCCOCCOCC(=O)N[C@H](CCCCc4cn(COCCOCCOCCOCCN5C(=O)C=CC5=O)nn4)C(=O)N[C@H](C(=O)N[C@@H](CCCNC(N)=O)C(=O)Nc4ccc(COC(=O)NC[C@H](C)c5ccc(-c6c(O)cc(C)c7[nH]c(=O)c8sccc8c67)cc5)cc4)C(C)C)nn3)c2n1` [Compound K8], the EC50 is 110 nM.

Consider `CCCCOc1nc(N)c2[nH]c(=O)n(Cc3cn(CCOCCOCCOCC(=O)N[C@H](CCCCNC(=O)OCc4ccc(NC(=O)[C@H](CCCNC(N)=O)NC(=O)[C@@H](NC(=O)CCCCCN5C(=O)C=CC5=O)C(C)C)cc4)C(=O)NCCOCCOCCOCCOCCNC(=O)CCC(=O)N4Cc5ccccc5C#Cc5ccccc54)nn3)c2n1` [Compound K7], for which the EC50 was 45 nM.

For `COCCOc1nc(N)c2[nH]c(=O)n(Cc3ccc(CNC(=O)CCC(=O)NC(CCCCc4cn(CCOCCOCCOc5c(OC)cc(/C=C/C(=O)N6CCC=CC6=O)cc5OC)nn4)C(=O)O)cc3)c2n1` (stereo not drawn) [SZU-191], the EC50 is 100 nM.

As to `C#CCCCn1c(=O)[nH]c2c(N)nc(OCCCC)nc21` [GY121, reference compound], the EC50 turned out to be 50 nM.

Still in this test, the particulars now being: Homo sapiens, PBMC, 24 h, pH 5, 24 h, 37 °C; Note d: sample pretreated by hydrolysis, acetate buffer pH 5, 37 °C, 72 h; read-out: EC50 IFN-γ ratio (inducing human PBMCs to produce IFN-γ).
With `COCCOc1nc(N)c2c(n1)n(Cc1ccc(CNC(=O)CCc3cn(CCOCCOCCOCCNC(=O)CCN4C(=O)C=CC4=O)nn3)cc1)c(=O)n2COC(=O)OC(C)C` [Compound K16], the EC50 was 11 nM.

In the case of `C=CCNC(=S)NCC(=O)n1c(=O)n(Cc2ccc(CNC(=O)CCc3cn(CCOCCOCCOCCNC(=O)CCN4C(=O)C=CC4=O)nn3)cc2)c2nc(OCCOC)nc(N)c21` [Compound K67], the EC50 was 260 nM.

The same test, now with this note: Homo sapiens, PBMC, 24 h, pH 6, 24 h, 37 °C, Note b: sample pretreated with equimolar glutathione, PBS pH 6, 37 °C, read-out: EC50 IFN-γ ratio (inducing human PBMCs to produce IFN-γ).
Take `C=C(CN1CCN(C(=O)n2c(=O)n(CCCc3cn(CCOCCOCCOCC(=O)OCC)nn3)c3nc(OCCCC)nc(N)c32)CC1)C(=O)NCCOCCOCCOCCOCCNC(=O)CCC(=O)N1Cc2ccccc2C#Cc2ccccc21` [Compound K61]: the EC50 worked out at 2 nM.

Still in this test, the particulars now being: Homo sapiens, PBMC; 24 h, 37 °C; Note d: sample pretreated by hydrolysis, acetate buffer pH 5, 37 °C, 72 h; read-out: EC50 IFN-γ ratio (inducing human PBMCs to produce IFN-γ).
For the compound `CC[C@@]1(O)C(=O)OCc2c1cc1n(c2=O)Cc2c-1nc1cc(F)c(C)c3c1c2[C@@H](NC(=O)CNC(=O)OCn1c(=O)n(Cc2ccc(CNC(=O)CCc4cn(CCOCCOCCOCCNC(=O)CCN5C(=O)C=CC5=O)nn4)cc2)c2nc(OCCOC)nc(N)c21)CC3` [Compound K42], the EC50 turned out to be 7 nM.
